Experimental data from patent US5833994A, “Use of the AH receptor and AH receptor ligands to treat or prevent cytopathicity of viral infection” (Paracelsian, Inc., priority 1997, dated 1998).
Entries after “also recorded” stand apart in the source; their conditions may differ.

Tests used:
Cyclin B [1] = experiment: Inhibition of cyclin B overexpression (cyclin B ELISA; FIGS. 2 and 3); format: cell-based; conditions: FIG. 2 / FIG. 3
Protocol: Cyclin B ELISA procedure: The overexpression Cyclin B has become associated with HIVenv 2-8 cytopathicity. This biochemical response and it's inhibition by Ah receptor ligands has been assayed by ELISA. Following 24 hours of co-culture in 96 well microtiter tissue culture plates, the cells are washed 1X with PBS buffer and then lysed with 50 μL lysis buffer (50 mM Tris, […], 10% glycerol, 1% NP-40) with shaking at 4° C. for 30 minutes. Thirty microliters of the cell lysate were then transferred into Immulon 4™ ELISA strip plates and 70 μL of coating buffer (0.2M Borate pH 10.5) added to bring the final microtiter well volume to 100 μL The plates were then incubated at 37° C. for 1 hour to allow for coating. The plates are then washed 3X with 300 μl TBST (20 mM Tris, 150 mM NaCl, 0.05% Tween 20, pH 7.5), incubated with 125 μL of blocking solution for 5 minutes, washed 3X, incubated with horseradish peroxidase labeled anti-mouse IgG for 1 hour at room temperature, washed 3X, and then incubated with 100 μL TMB substrate for 30 minutes at room temperature. Stop solution (2.5M sulfuric acid, 100 μL) was then added to prevent further color development and the plate was read at an optical density of 450 nm.
Data Reduction for this ELISA: HIVenv 2-2 co-culture ELISA values are used as the background for HIVenv 2-8 co-culture values. […]

Cyclin B [2] = experiment: Inhibition of cyclin B overexpression, western blot densitometry; format: cell-based; conditions: TCDD, 10 nM; mean ± standard error, n=5 or 6; 2-8 co-culture 61.88, 2-2 co-culture 10.14
Protocol: (§1) The expression of the protein kinase c-Mos was induced in addition to alterations in cell cycle (CDK1, cyclin B) and apoptotic (Bcl-2 and Bax) protein concentrations and phosphorylation status. CDK1 became hyperphosphorylated whereas cyclin B, Bcl-2, and Bax expression were elevated. Assay for these biochemical changes was performed by western blot analysis using equal amounts of cell lysate proteins derived from cells cultured with the respective Ah receptor ligands. Responses were quantified by scanning densitometry.
(§2) Data from Table 2 represents the mean ± standard error of scanning densitometric units (n=5 or 6 individual scans from separate experiments).Doses used were as follows: TCDD, 10 nM; Substituted Furans (6-nitro 1,3,8-trichlorodibenzofuran; 6-isopropyl, 1,3,8-trichlorodibenzofuran; 6-methyl, 1,3,8-trichlorodibenzofuran; 1-bromo, 6-methyl, 3,8-dichlorodibenzofuran), 2 μM. All four alkyl substituted furan compounds that were tested yielded approximately equivalent responses so their responses were combined.

[3] = test system: HIV envelope gp120/41-induced syncytia formation in CD4+T cell lines (HIVenv 2-8 co-culture); experiment: Inhibition of HIVenv 2-8-induced syncytia formation / cell death (HIV-1 co-culture assay); format: cell-based; conditions: for Estimated IC50 (Syncitia Quantification), inhibition of HIV-induced cytopathicity: Table 1
Protocol: Sourcing of Ah Receptor Ligands: The Ah receptor ligands 2,3,7,8-Tetrachlorodibenzo-p-dioxin, 3,3',4,4',5-Pentachlorobiphenyl, 3,3',4,'4-Tetrachlorobiphenyl, and 2-Monochlorodibenzo-p-dioxin compounds were purchased from Accustandard (Cambridge, Mass.). α-naphthoflavone was purchased from Sigma (St. Louis, Mo.). Stock solutions of each compound were prepared by dissolution in DMSO at a 1000X concentration, i.e. the highest concentration tested was diluted by 1000-fold.
Bioassay Procedure: The cell lines utilized in the assay protocol include the following: HIVenv 2-2 (non-cytopathic), HIVenv 2-8 (cytopathic), Jurkat CD4+T cell line (clone E6-1), and SupT1. Cell lines were cultured in RPMI medium (Gibco, Grand Island, N.Y.) supplemented with L-glutamine (Sigma, St. Louis, Mo.) and 10% FBS-HI (Intergen). The Jurkat CD4+T cell line was obtained from American Type Culture Collection (Bethesda, Md.). All other cell lines were obtained from the National Institutes of Health. The HIVenv 2-2 or HIVenv 2-8 cells were plated with both CD4+T cell lines (1×10^3 cells per cell line in 16 μL of media.) in a 96-well tissue culture plate containing 50 μL of media with compound to be tested yielding a final volume of approximately 100 μL. The plates were then gently shaken to ensure adequate mixing of the assay components. Cells were then co-cultured at 5% CO2, 37C., and 95% humidity for 24 to 48 hours. The time points were chosen for the convenience, cytopathic changes become evident in the cell cultures used within a 2 to 4 hour period, becoming more and more prominent with time.
Data Reduction for this ELISA: HIVenv 2-2 co-culture ELISA values are used as the background for HIVenv 2-8 co-culture values. Dose responses are then plotted with dose along the x-axis and the background corrected optical density values on the y-axis.
Positive and Negative Controls: The use of the HIVenv 2-2 cell line serves as a negative control for induction of cytopathicity.
(§3) Interpretation of the Test: A positive response was defined as a dose-related decrease in syncytia formation in excess of 50% compared to HIVenv 2-8 co-cultures alone. Calculation of median effective doses was estimated by visual observation and by quantification of syncitia in 10X power microscope fields.
The Materials and Methods used in the testing of the various dibenzofuran compounds were the same as those used in Example 1 above. This includes the use of the same controls, cell lines, and assay procedures.
as §3, with “fields. Another procedure which provides data similar to the Bioassay procedure just described allows for quantification of changes in the co-culture cells through an ELISA method, not as reliant on visual observation. […]” for “fields.”

CDK1 = experiment: Inhibition of CDK1 hyperphosphorylation, western blot densitometry; format: cell-based; conditions: TCDD, 10 nM; mean ± standard error, n=5 or 6; 2-8 co-culture 44.27, 2-2 co-culture 10.41
Protocol: as §1, §2

Ah receptor [4] = target: T1, Ah receptor (Cavia porcellus, UniProt Q6J287); experiment: Ah receptor transformation, agonist test (Ah-immunoassay, absence of TCDD); format: biochemical, Guinea pig
T1 sequence (Q6J287 1-846): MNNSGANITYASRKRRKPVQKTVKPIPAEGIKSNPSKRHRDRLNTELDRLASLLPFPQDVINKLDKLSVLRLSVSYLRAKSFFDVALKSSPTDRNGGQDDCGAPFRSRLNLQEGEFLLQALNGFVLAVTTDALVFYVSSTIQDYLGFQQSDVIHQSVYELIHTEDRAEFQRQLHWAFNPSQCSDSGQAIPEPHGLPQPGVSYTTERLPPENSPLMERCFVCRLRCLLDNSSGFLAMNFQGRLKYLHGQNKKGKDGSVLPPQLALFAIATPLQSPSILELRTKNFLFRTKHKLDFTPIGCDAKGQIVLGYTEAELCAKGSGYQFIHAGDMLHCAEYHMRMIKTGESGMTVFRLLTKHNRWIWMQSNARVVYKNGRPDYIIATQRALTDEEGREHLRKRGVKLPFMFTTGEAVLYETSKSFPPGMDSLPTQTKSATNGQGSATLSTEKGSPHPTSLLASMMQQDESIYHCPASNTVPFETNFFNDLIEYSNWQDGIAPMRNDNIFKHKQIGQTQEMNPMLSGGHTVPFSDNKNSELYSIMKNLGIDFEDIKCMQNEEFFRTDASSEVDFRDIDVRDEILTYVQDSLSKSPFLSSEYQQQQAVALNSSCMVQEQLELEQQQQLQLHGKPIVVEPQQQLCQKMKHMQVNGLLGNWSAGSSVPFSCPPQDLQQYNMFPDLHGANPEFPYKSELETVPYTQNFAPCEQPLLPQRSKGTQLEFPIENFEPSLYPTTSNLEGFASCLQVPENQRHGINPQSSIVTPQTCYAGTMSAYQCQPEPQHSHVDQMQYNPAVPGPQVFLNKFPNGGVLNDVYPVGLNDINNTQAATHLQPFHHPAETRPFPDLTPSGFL
Protocol: Cytosol was prepared as described above.
Diluent for TCDD dose response, diluent for extracts (detection of agonists), and negative control: The cytosol is treated with 1 μL DMSO per 1 mL cytosol (-).
1 nM TCDD treated, positive control. […] DMSO diluent for detection of agonists: the cytosol is treated with μL DMSO per 1 mL cytosol. (1 nm final concentration of TCDD).

[5] = high dosages over a prolonged period; cited from earlier work
Ah receptor [6] = target: T1, Ah receptor; experiment: Inhibition of Ah receptor transformation, antagonist test (Ah-immunoassay, 0.5 nM TCDD)
Protocol: Cytosol was prepared as described in methods and treated with TCDD, DMSO or TCM extract to make 1) 0.5 nM TCDD, 2) 0.1% DMSO, or 3) 500 μg/mL TCM extract, respectively. The treated cytosol was serially diluted in a neutravidin-coated ELISA plate (Pierce, Rockford, Ill.). […] To treat for Ah receptor agonist activity, extracts were diluted in 0.5 nM TCDD treated cytosol to 250, 125, and 62.5 μg/mL of TCM extracts.
Ten mL aliquots of cytosol were thawed and pooled, generally 20 mL per ELISA plate. For each 20 mL of cytosol, 10 μL of thawed DRE stock and 1 mL HEDG in 4M NaCl were added.
0.5 nM TCDD Diluent for extracts (detection of antagonists): The cytosol is treated with 1 μl of 1 μM TCDD per 2 mL cytosol (0.5 nm).
500 μg/mL extracts (detection of antagonists): 1 μL of test extract (500 mg/mL in DMSO) in 1 mL 0.5 nM TCDD-treated cytosol (500 μg/mL final concentration of extract in cytosol).
Serial dilution's of the extracts and/or TCDD treated cytosol into DMSO-treated cytosol are done as required by the experiment and are described in the examples.
The ELISA plate containing the treated cytosol is incubated with gentle rocking for 2 hours at 30° C. to allow the transformation of Ah receptor, binding of Ah receptor with ARNT, and binding of the Ah receptor/ARNT complex to the biotinylated DRE, and binding of the biotinylated DRE to the neutravidin bound to the ELISA plate.
After 2 hours the plate is washed 3 times with 400 μL TBS plus 0.02% Tween 20 per well per wash and 200 μL of the working dilution of anti-ARNT added to all wells. The plate is again incubated with gentle rocking at 30° C. for 1 hour. After 1 hour the plate is washed as before and a working dilution (1:4000) of anti-rabbit/alkaline phosphatase conjugate is added to all wells. The plate is incubated for a further 1 hour at 30° C. with gentle rocking and then washed as before. PNPP stock is added to each well (200 μL) and the plate is incubated for 1 hour at 30° C., at which time it is read at 405 nm in an ELISA plate reader and the milli O.D.'s of the wells are recorded.
TCM extracts were tested for their ability to inhibit the transformation of the Ah receptor.

[7] = test system: transformed, cancerous cells; conditions: cited from earlier work
Ah receptor [8] = conditions: literature; cited from earlier work

## Clc1cc2c(cc1Cl)Oc1cc(Cl)c(Cl)cc1O2 [2,3,7,8-TCDD, 2,3,7,8-Tetrachlorodibenzo-p-dioxin]
Cyclin B [1]
  inhibition of cyclin B overexpression (figure legend): inhibition of cyclin B overexpression
Cyclin B [2]
  Cyclin B (inhibition of cyclin B overexpression): 9.32 ± 2.7 scanning densitometric units
[3]
  inhibition of syncytia formation / cytopathicity: most effective compound and strongest Ah receptor agonist
  Estimated IC50 (Syncitia Quantification), inhibition of HIV-induced cytopathicity: 2 nM
CDK1
  CDK1 Phosphorylation: 11.13 ± 3.3 scanning densitometric units
Ah receptor [4]
  EC50: 0.5 nM
Ah receptor [4]; Table 12 footnote, .5 nM TCDD, BG subtracted, read at 450 nm
  Milli O.D. of TCDD control: 850 Milli O.D.

## COC1C=CC=C(C)C(=O)NC2=CC(=O)C=C(C2=O)C(OC)C(C)CC(OC)C(OC)C(C)C=C(C)C1OC(N)=O (centres unmarked) [Herbimycin A, herbimycin A]
Cyclin B [1]
  inhibition of cyclin B overexpression (figure legend): inhibition of cyclin B overexpression
[3]
  inhibition of syncytia formation / cytopathicity: block the HIVenv 2-8 induced cytopathic effect
  Estimated IC50 (Syncitia Quantification), inhibition of HIV-induced cytopathicity: 750 nM
[3]; Table 1, positive control
  Estimated IC50 (Syncitia Quantification), inhibition of HIV-induced cytopathicity, second value in brackets: 430 nM

## O=c1c(O)c(-c2ccc(O)c(O)c2)oc2cc(O)cc(O)c12 [Quercetin]
[5]
  genotoxicity / carcinogenic activity: genotoxic compound, that may initiate carcinogenic activity in certain tissues
Ah receptor [6]
  IC50: ~9930 nM
Ah receptor [6]; 0.5 nM TCDD
  inhibition of Ah receptor transformation / antagonist activity (words): does present antagonistic activity towards the Ah receptor
Ah receptor [6]; 0.5 nM TCDD, listed as quercetin
  inhibition of Ah receptor transformation / antagonist activity (words): antagonistic activity towards the Ah receptor at all doses tried
Ah receptor [6]; Table 12, 2.5 μg/mL
  Quercetin interaction with the Ah receptor, Milli O.D. Reading: 480 Milli O.D.
Ah receptor [6]; Table 12, 5 μg/mL
  Quercetin interaction with the Ah receptor, Milli O.D. Reading: 320 Milli O.D.
Ah receptor [6]; Table 12, 10 μg/mL
  Quercetin interaction with the Ah receptor, Milli O.D. Reading: 260 Milli O.D.
Ah receptor [6]; Table 12, 20 μg/mL
  Quercetin interaction with the Ah receptor, Milli O.D. Reading: 210 Milli O.D.
[7]
  anti-proliferative effect: anti-proliferative effect on those transformed, cancerous cells

## O=c1cc(-c2ccccc2)oc2c1ccc1ccccc12 [α-naphthoflavone]
[3]
  inhibition of syncytia formation / cytopathicity: correspondingly weaker activity; also recorded: also effective at inhibiting syncytia formation
  Estimated IC50 (Syncitia Quantification), inhibition of HIV-induced cytopathicity: 350 nM
Ah receptor [6]; 0.5 nM TCDD
  IC50, inhibition of Ah receptor transformation (estimated): 18600 nM
  inhibition of Ah receptor transformation / antagonist activity (words): more potent antagonist of the Ah receptor
Ah receptor [8]
  known Ah receptor agonism/antagonism: known partial agonist and antagonist of the Ah receptor; also recorded: described to act as an Ah receptor antagonist by inhibiting TCDD-induced Ah receptor transformation to a DNA binding form
Ah receptor [4]; absence of TCDD
  ability to transform the Ah receptor / agonist activity: very weak agonist of the Ah receptor; also recorded: did not reach the EC50 of TCDD
